Measurements published in patent US9346761B2, “Arginine methyltransferase inhibitors and uses thereof” (Epizyme, Inc., priority 2013, dated 2016).

How the values were obtained:
Full-length human PRMT6 = target: T1, Full-length human PRMT6 (Homo sapiens, UniProt Q96LA8); assay: PRMT6 biochemical assay (3H-SAM Flashplate, peptide substrate)
T1 construct: Flag-PRMT6-His was eluted with 200 ug/ml FLAG peptide in the same buffer; made in house; host or cells: HEK 293F cells (BacMam virus, pFastBacMam)
T1 sequence (Q96LA8 with tags, fused parts or gaps): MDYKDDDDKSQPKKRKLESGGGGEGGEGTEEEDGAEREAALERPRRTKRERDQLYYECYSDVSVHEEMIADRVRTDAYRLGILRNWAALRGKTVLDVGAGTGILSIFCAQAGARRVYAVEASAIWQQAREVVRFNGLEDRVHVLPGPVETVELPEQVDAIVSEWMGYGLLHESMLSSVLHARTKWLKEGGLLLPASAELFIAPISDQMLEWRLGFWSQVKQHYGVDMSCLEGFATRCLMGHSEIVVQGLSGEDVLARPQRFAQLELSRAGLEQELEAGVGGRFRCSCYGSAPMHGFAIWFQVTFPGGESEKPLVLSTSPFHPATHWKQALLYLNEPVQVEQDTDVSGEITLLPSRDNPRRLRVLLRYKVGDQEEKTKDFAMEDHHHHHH
Outline: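 Flag-PRMT6-His from baculovirus-infected cells, preincubated with compound 30 min at room temperature, then SAM/3H-SAM and biotinylated H4 36-50 peptide added; 20 mM Bicine pH 7.6, TCEP, BSG, Tween 20. Quenched with cold SAM, captured on streptavidin Flashplates; % inhibition from SAH/DMSO controls, 3- or 4-parameter IC50 fit.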

[1] = target: T2, Full-length human PRMT1 isoform 1 (Homo sapiens, UniProt Q99873); assay: PRMT1 biochemical assay (3H-SAM Flashplate, peptide substrate)
T2 construct: GST-tagged PRMT1; made in house; host or cells: High Five insect cells (baculovirus, pFastBacI)
T2 sequence (Q99873 with tags, fused parts or gaps): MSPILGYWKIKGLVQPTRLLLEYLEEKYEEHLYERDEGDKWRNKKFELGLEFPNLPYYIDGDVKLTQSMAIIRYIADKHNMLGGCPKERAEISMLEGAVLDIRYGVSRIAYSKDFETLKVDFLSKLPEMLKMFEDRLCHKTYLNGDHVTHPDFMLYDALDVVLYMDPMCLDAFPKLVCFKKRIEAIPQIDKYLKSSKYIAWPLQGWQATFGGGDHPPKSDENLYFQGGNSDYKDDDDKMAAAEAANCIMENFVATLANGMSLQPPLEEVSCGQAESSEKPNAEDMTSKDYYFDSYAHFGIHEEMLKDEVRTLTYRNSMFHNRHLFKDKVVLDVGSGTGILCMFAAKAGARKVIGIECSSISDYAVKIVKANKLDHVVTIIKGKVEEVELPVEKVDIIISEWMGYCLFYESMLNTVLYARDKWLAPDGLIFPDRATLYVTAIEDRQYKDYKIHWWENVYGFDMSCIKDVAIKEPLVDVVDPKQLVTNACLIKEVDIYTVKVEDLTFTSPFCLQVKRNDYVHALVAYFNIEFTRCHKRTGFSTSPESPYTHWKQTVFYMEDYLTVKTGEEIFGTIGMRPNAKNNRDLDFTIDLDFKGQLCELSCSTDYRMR
Outline: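 GST-tagged full-length PRMT1 from baculovirus-infected cells, preincubated 30 min at room temperature with compound in 20 mM Bicine pH 7.6, TCEP, BSG, Tween 20. Reaction started with 3H-SAM plus biotinylated peptide, stopped with 300 uM unlabelled SAM. Streptavidin Flashplate capture and scintillation counting; % inhibition curve-fitted for IC50.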

Row | SMILES | IC50 (Full-length human PRMT6) | IC50 [1]
1 | NCCN(CCO)Cc1c[nH]nc1-c1ccc(F)cc1 [Compound 171] | 1010 to 3000 nM | 101 to 1000 nM
2 | CN(CCN)Cc1c[nH]nc1-c1ccc(OCCN2CCOCC2)cc1 [Compound 172] | < 100 nM | 101 to 1000 nM
3 | CN(CCN)Cc1c[nH]nc1-c1ccc2c(c1)NC(=O)CO2 [Compound 173] | < 100 nM | 101 to 1000 nM
